Assay results: ChEMBL document CHEMBL5331094, “Identification of 2,4,5-trisubstituted-2,4-dihydro-3H-1,2,4-triazol-3-one-based small molecules as selective BRD9 binders” (Eur J Med Chem, 2023)

Assays:
[1] = target: T1, Bromodomain-containing protein 9 (Homo sapiens) (UniProt Q9H8M2); assay: Binding affinity of GST-tagged BRD9 domain (unknown origin) to histone H4Ac (1 to 21 residues) assessed as residual binding at 10 uM by alphascreen analysis relative to control
T1 sequence (whole entry): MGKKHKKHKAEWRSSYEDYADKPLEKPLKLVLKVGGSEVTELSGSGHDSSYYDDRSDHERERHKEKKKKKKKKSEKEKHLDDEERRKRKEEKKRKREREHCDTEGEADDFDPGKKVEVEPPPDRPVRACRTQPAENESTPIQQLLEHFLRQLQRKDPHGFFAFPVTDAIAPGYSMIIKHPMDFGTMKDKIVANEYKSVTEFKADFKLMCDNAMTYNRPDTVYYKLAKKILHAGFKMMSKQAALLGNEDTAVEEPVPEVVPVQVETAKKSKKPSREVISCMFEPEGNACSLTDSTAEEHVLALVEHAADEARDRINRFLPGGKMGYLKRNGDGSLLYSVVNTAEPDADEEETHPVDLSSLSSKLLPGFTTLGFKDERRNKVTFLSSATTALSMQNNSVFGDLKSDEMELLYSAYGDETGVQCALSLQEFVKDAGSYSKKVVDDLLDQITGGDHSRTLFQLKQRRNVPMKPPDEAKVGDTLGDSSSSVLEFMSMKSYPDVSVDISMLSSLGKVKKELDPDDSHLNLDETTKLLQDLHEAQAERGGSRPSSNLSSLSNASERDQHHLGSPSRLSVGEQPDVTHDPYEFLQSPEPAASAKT

[2] = target: SWI/SNF-related matrix-associated actin-dependent regulator of chromatin subfamily A member 4 (Homo sapiens) (UniProt P51532); assay: Binding affinity of recombinant His-tagged SMARCA4 (unknown origin) to histone H3 (1 to 30 residues) K4/18/23/27Ac assessed as residual binding at 10 uM incubated for 30 mins by alphascreen analysis relative to control
[3] = target: Bromodomain-containing protein 7 (Homo sapiens) (UniProt Q9NPI1); assay: Binding affinity of recombinant His-tagged […] (unknown origin) to histone H3 (1 to 30 residues) K4/18/23/27Ac assessed as residual binding at 10 uM incubated for 30 mins by alphascreen analysis relative to control
[4] = target: Bromodomain-containing protein 7 (Homo sapiens, UniProt Q9NPI1); assay: Inhibition of recombinant His-tagged […] (unknown origin) to histone H3 (1 to 30 residues) K4/18/23/27Ac incubated for 30 mins by alphascreen analysis
[5] = target: Chromatin remodeling regulator CECR2 (Homo sapiens) (UniProt Q9BXF3); assay: Binding affinity of recombinant His-tagged CECR2 (unknown origin) to histone H4Ac (1 to 21 residues) K5/8/12/Ac-Biotin-OH assessed as residual binding at 10 uM incubated for 30 mins by alphascreen analysis relative to control
[6] = target: Nucleosome-remodeling factor subunit BPTF (Homo sapiens) (UniProt Q12830); assay: Binding affinity of recombinant His-tagged BPTF (unknown origin) to histone H4Ac (1 to 21 residues) K5/8/12/Ac-Biotin-OH assessed as residual binding at 10 uM incubated for 30 mins by alphascreen analysis relative to control
[7] = target: Bromodomain-containing protein 1 (Homo sapiens) (UniProt O95696); assay: Binding affinity of recombinant His-tagged BRD1 (unknown origin) to histone H4Ac (1 to 21 residues) K5/8/12/Ac-Biotin-OH assessed as residual binding at 10 uM incubated for 30 mins by alphascreen analysis relative to control
[8] = target: CREB-binding protein (Homo sapiens) (UniProt Q92793); assay: Binding affinity of recombinant His-tagged CREBBP (unknown origin) to histone H4Ac (1 to 21 residues) K5/8/12/Ac-Biotin-OH assessed as residual binding at 10 uM incubated for 30 mins by alphascreen analysis relative to control
A-375 = assay: Cytotoxicity against human A-375 cells assessed as cell viability measured after 24 hrs by MTT assay; assay type: functional, cell-based; details: A-375, 24 h
[9] = target: Bromodomain testis-specific protein (Homo sapiens) (UniProt Q58F21); assay: Binding affinity of recombinant His-tagged BRDT-BD1 (unknown origin) to histone H4Ac (1 to 21 residues) K5/8/12/Ac-Biotin-OH assessed as residual binding at 10 uM incubated for 30 mins by alphascreen analysis relative to control
[10] = target: Bromodomain-containing protein 4 (Homo sapiens) (UniProt O60885); assay: Binding affinity of recombinant His-tagged BRD4-BD2 (unknown origin) to histone H4Ac (1 to 21 residues) K5/8/12/Ac-Biotin-OH assessed as residual binding at 10 uM incubated for 30 mins by alphascreen analysis relative to control
MCF7 = assay: Cytotoxicity against human MCF7 cells assessed as cell viability measured after 24 hrs by MTT assay; assay type: functional, cell-based; details: MCF7, 24 h
[11] = Cytotoxicity against human erythrocytes assessed as cell viability measured after 24 hrs by MTT assay; assay type: toxicity, cell-based, Erythrocyte
Jurkat = assay: Cytotoxicity against human Jurkat cells assessed as cell viability measured after 24 hrs by MTT assay; assay type: functional, cell-based
[12] = target: Bromodomain-containing protein 3 (Homo sapiens) (UniProt Q15059); assay: Binding affinity of recombinant His-tagged BRD3-BD1 (unknown origin) to histone H4Ac (1 to 21 residues) K5/8/12/Ac-Biotin-OH assessed as residual binding at 10 uM incubated for 30 mins by alphascreen analysis relative to control
[13] = target: Bromodomain adjacent to zinc finger domain protein 2B (Homo sapiens) (UniProt Q9UIF8); assay: Binding affinity of recombinant His-tagged BAZ2B (unknown origin) to histone H3 (1 to 21 residues) K9/14Ac-Biotin-OH assessed as residual binding at 10 uM incubated for 30 mins by alphascreen analysis relative to control
[14] = target: Bromodomain-containing protein 2 (Homo sapiens) (UniProt P25440); assay: Binding affinity of recombinant His-tagged BRD2-BD2 (unknown origin) to histone H4Ac (1 to 21 residues) K5/8/12/Ac-Biotin-OH assessed as residual binding at 10 uM incubated for 30 mins by alphascreen analysis relative to control
[15] = target: Transcription initiation factor TFIID subunit 1 (Homo sapiens) (UniProt P21675); assay: Binding affinity of recombinant His-tagged TAF1 (unknown origin) to histone H4Ac (1 to 21 residues) K5/8/12/Ac-Biotin-OH assessed as residual binding at 10 uM incubated for 30 mins by alphascreen analysis relative to control
[16] = target: Bromodomain-containing protein 2 (Homo sapiens) (UniProt P25440); assay: Binding affinity of recombinant His-tagged BRD2-BD1 (unknown origin) to histone H4Ac (1 to 21 residues) K5/8/12/Ac-Biotin-OH assessed as residual binding at 10 uM incubated for 30 mins by alphascreen analysis relative to control
[17] = target: Bromodomain and PHD finger-containing protein 3 (Homo sapiens) (UniProt Q9ULD4); assay: Binding affinity of recombinant His-tagged BRPF-3 (unknown origin) to histone H4Ac (1 to 21 residues) K5/8/12/Ac-Biotin-OH assessed as residual binding at 10 uM incubated for 30 mins by alphascreen analysis relative to control
HaCaT = assay: Cytotoxicity against human HaCaT cells assessed as cell viability measured after 24 hrs by MTT assay; assay type: functional, cell-based
[18] = target: Bromodomain-containing protein 3 (Homo sapiens) (UniProt Q15059); assay: Binding affinity of recombinant His-tagged BRD3-BD2 (unknown origin) to histone H4Ac (1 to 21 residues) K5/8/12/Ac-Biotin-OH assessed as residual binding at 10 uM incubated for 30 mins by alphascreen analysis relative to control
[19] = target: T2, Bromodomain-containing protein 9 (Homo sapiens, UniProt Q9H8M2); assay: Inhibition of BRD9 (unknown origin) by alpha screen analysis
T2 sequence (Q9H8M2 whole entry): T1 sequence (whole entry)

Caco-2 = assay: Cytotoxicity against human Caco-2 cells assessed as cell viability measured after 24 hrs by MTT assay; assay type: functional, cell-based; details: Caco-2, 24 h
[20] = target: Bromodomain-containing protein 4 (Homo sapiens) (UniProt O60885); assay: Binding affinity of recombinant His-tagged BRD4-BD1 (unknown origin) to histone H4Ac (1 to 21 residues) K5/8/12/Ac-Biotin-OH assessed as residual binding at 10 uM incubated for 30 mins by alphascreen analysis relative to control
[21] = target: ATPase family AAA domain-containing protein 2 (Homo sapiens) (UniProt Q6PL18); assay: Binding affinity of recombinant His-tagged ATAD2 (unknown origin) to histone H4Ac (1 to 21 residues) K5/8/12/Ac-Biotin-OH assessed as residual binding at 10 uM incubated for 30 mins by alphascreen analysis relative to control

Bromodomain-containing protein 3 (Homo sapiens), sequence (Q15059 2-726 limits assumed): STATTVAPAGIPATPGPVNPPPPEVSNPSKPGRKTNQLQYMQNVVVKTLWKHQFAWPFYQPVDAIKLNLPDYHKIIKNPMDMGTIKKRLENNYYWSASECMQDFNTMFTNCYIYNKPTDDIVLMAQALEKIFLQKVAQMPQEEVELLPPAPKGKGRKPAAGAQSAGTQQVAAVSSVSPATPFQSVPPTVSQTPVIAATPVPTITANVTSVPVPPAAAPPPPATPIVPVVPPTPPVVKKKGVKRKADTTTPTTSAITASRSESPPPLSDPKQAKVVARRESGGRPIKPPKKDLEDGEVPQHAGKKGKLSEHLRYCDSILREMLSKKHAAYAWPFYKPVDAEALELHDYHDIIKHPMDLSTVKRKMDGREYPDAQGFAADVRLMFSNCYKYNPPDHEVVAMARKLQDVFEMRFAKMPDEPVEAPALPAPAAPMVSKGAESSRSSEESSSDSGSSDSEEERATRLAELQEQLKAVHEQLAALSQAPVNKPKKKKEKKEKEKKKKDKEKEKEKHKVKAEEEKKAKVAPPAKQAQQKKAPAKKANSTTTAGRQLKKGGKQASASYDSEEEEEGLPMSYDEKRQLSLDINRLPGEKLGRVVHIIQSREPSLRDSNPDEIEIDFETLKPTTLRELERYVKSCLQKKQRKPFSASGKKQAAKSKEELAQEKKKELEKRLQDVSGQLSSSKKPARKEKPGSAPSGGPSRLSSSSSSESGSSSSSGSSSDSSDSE
Bromodomain-containing protein 2 (Homo sapiens), sequence (P25440 whole entry, looked up, the tested form may be a part): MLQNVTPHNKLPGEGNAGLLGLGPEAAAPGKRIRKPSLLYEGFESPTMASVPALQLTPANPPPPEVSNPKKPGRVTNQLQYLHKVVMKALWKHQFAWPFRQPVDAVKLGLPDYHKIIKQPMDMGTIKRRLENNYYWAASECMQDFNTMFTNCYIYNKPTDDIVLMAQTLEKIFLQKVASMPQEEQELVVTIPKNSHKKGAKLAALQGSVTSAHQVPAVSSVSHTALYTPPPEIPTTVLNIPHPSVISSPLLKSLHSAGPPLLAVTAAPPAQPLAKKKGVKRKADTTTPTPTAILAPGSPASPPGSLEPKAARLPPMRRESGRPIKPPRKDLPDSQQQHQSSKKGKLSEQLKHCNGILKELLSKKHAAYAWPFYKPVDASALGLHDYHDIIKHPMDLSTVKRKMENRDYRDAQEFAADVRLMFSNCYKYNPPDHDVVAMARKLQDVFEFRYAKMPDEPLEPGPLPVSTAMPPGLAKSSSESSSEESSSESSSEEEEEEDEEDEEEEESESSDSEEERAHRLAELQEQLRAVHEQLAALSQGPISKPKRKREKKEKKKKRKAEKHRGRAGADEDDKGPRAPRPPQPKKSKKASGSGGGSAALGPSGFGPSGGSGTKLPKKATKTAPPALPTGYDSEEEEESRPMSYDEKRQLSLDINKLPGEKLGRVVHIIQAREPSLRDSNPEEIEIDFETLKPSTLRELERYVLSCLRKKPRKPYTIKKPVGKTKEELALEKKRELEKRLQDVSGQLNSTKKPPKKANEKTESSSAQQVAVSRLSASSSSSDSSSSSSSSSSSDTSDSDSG
Bromodomain and PHD finger-containing protein 3 (Homo sapiens), sequence (Q9ULD4 whole entry, the tested form may be a part): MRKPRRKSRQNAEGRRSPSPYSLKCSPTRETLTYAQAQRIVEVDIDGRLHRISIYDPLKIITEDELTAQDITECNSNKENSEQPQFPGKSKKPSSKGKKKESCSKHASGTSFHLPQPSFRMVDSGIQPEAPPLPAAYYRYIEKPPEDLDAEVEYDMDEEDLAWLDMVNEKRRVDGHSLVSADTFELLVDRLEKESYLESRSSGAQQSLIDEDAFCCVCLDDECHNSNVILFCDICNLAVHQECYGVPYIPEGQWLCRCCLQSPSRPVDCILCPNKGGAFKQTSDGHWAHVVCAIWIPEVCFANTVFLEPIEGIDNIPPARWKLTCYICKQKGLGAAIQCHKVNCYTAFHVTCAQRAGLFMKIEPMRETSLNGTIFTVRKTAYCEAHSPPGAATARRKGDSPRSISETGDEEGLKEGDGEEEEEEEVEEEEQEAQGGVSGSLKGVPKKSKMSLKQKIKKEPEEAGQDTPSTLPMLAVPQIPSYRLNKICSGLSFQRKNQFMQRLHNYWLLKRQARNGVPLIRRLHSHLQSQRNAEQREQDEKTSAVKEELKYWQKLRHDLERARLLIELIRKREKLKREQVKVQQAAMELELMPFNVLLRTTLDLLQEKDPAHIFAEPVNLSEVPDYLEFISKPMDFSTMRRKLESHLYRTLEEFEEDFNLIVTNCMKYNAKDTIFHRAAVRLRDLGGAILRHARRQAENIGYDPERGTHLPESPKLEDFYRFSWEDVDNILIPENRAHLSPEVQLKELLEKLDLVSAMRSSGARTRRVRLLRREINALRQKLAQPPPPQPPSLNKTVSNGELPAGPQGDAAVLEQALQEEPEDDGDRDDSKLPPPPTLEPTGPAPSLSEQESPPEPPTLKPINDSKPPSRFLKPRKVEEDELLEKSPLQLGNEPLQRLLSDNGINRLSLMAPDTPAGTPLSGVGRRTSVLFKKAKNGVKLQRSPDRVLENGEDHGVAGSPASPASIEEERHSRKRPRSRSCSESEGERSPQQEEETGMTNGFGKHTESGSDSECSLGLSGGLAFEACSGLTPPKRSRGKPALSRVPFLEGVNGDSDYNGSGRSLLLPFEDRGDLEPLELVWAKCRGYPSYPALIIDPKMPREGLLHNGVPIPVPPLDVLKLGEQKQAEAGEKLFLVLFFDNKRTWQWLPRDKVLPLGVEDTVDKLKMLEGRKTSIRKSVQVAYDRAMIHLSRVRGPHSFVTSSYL
Bromodomain-containing protein 7 (Homo sapiens), sequence (Q9NPI1 whole entry, the tested form may be a part): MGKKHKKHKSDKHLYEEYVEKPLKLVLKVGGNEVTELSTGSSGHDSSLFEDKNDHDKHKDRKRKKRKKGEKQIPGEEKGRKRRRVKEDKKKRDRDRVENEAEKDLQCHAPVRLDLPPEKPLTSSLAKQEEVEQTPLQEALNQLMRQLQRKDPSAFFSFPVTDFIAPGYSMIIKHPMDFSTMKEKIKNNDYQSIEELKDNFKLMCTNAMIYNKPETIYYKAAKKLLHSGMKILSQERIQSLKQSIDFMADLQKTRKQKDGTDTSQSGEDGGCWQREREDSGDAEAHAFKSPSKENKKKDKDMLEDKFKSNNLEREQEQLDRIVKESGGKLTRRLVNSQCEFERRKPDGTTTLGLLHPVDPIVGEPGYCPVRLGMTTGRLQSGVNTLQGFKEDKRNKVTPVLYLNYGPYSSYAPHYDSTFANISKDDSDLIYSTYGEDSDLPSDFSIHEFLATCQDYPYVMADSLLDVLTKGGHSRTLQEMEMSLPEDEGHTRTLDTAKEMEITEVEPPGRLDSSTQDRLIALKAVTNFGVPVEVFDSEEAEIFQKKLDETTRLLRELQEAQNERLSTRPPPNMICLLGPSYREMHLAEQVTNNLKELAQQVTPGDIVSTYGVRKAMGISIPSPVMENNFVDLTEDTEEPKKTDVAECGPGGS
Bromodomain-containing protein 7, sequence (Q9NPI1 whole entry, the tested form may be a part): as above
Bromodomain-containing protein 1 (Homo sapiens), sequence (O95696 whole entry, the tested form may be a part): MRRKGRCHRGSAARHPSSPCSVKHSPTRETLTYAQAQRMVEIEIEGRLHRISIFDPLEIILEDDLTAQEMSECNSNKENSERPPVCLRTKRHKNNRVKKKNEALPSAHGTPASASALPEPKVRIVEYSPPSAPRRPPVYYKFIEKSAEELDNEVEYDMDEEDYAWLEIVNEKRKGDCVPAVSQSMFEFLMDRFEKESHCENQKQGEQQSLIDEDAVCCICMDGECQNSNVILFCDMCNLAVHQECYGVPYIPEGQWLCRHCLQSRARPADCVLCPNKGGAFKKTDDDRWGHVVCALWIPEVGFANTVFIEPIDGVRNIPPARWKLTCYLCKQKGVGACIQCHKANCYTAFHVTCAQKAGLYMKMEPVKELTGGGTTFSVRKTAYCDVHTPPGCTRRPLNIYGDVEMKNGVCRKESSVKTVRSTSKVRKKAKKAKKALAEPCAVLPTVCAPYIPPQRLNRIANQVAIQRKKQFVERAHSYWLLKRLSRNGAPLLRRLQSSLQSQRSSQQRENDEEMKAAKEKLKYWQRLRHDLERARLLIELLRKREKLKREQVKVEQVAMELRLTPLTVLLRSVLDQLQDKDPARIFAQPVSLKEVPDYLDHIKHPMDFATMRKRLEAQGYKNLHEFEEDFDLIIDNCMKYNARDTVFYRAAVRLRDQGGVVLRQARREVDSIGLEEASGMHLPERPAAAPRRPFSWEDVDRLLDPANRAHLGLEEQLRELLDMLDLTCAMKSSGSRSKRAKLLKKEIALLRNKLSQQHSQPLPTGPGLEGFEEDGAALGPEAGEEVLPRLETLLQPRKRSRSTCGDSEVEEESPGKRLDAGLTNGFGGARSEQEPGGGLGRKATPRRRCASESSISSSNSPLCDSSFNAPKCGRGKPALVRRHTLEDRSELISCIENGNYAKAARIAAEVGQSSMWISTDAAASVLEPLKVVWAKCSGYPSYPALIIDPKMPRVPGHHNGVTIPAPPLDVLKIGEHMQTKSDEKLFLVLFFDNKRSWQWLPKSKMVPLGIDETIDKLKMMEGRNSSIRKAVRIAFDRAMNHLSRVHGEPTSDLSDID

Activity [1]: 21.1%
Activity [2]: 96.5%
Activity [3]: 75.8%
IC50 [4]: 71.4 µM
Activity [5]: 92.6%
Activity [6]: 95.5%
Activity [7]: 97.3%
Activity [8]: 97.7%
Activity [9]: > 100%
Activity [10]: 88.6%
Activity [12]: 96.5%
Activity [13]: > 100%
Activity [14]: > 100%
Activity [15]: 77.7%
Activity [16]: 98.9%
Activity [17]: 94.2%
Activity [18]: > 100%
IC50 [19]: 0.14 µM
Activity [20]: > 100%
Activity [21]: > 100%
SMILES: CCc1nn(C)c(=O)n1-c1ccc2c(c1)OCO2
IC50 (A-375): 270 µM
IC50 (MCF7): 500 µM
IC50 at 24 h [11]: > 500 µM
IC50 (Jurkat): 145 µM
IC50 (HaCaT): > 500 µM
IC50 (Caco-2): 330 µM
